Assay results as given in patent US6534638B1, “Recombinant DNA molecules encoding aminopeptidase enzymes and their use in the preparation of vaccines against helminth infections” (priority 1992, dated 2003).
Where two headings read alike, the source gives them in different places.

How the values were obtained:
[1] = system: H110D aminopeptidase A-like activity; experiment: Inhibitor sensitivity of ConA H110D, α-glutamic acid-pNA substrate; format: biochemical, Haemonchus contortus
Excerpt: (§1) α-amino acylpeptide hydrolase (microsomal) aminopeptidase activities in H110D preparations were characterised by assays, in solution, using L-leucine, methionine, phenylalanine, α-glutamic acid and lysine p-nitroanilides (pNA). All the amino acid p-nitroanilide substrates (except α-glutamic acid) were obtained from Sigma, Poole, Dorset UK, α-glutamic acid was from Fluka, Dorset, UK. Single hydrophobic (leucine- or phenylalanine-) and charged (α-glutamic acid-) amino acid pNA known to be substrates for mammalian aminopeptidase-M (ApM) and -A (ApA) respectively, were chosen to measure the effect of enzyme inhibitors and serum inhibition on H110D aminopeptidase activities.
(§2) Micro-ELISA plate (Dynatech Immulon 1, Virginia, USA) wells were each filled with 250 μl of either 50 mM HEPES or MOPS pH 7 plus 1-10 μl of the fraction to be assayed. The plates were then pre-incubated at 37° C. for 10 minutes prior to the addition of 10 μl of 25 mM amino acid p-nitroanilide substrate per well. The time zero optical density (OD) at 405 nm was then measured using an ELISA plate reader and the plates were then incubated at 37° C. for 15-30 minutes. The final OD reading was then taken as before and the OD change per minute per milligram of protein calculated.
(§3) The method used for the enzyme assay was as described in (a) above except that the inhibitors were added to the 250 μl of buffer plus 10 μl of 1 mg/ml ConA H110D and pre-incubated for 10 minutes at 37° C. prior to addition of the substrates (leucine-pNA or α-glutamic acid-pNA). The percentage inhibition was calculated as follows [formula]
(§4) Where x=the ΔOD/min of the enzyme with no inhibitor added and y=ΔOD/min of the enzyme plus inhibitor. Nine compounds with differing enzyme class inhibition were tested individually: Amastatin, Bestatin (metalloprotease, aminopeptidase), 1,10 phenanthroline, EDTA (metalloprotease), phosphoramidon (metalloprotease, thermolysin, collagenase), Aproptinin (serine protease), Pepstatin (aspartic protease), PMSF (serine and cysteine protease) and E64 (cysteine protease). Amastatin, bestatin, 1,10 phenanthroline, PMSF and pepstatin were obtained from Sigma, Dorset, UK. All the other inhibitors were obtained from Boehringer-Mannheim. Each inhibitor was used at two concentrations equal to or greater than the maximum concentrations recommended by Boehringer-Mannheim.

[2] = system: H110D aminopeptidase M-like activity; format: biochemical, Haemonchus contortus
Excerpt: as §1, §2, §3
as §4, with “Boehringer-Mannheim.” for “Boehringer-Mannheim. Each inhibitor was used at two concentrations equal to or greater than the maximum concentrations recommended by Boehringer-Mannheim.”

Compound	PERCENTAGE INHIBITION α-glutamic acid-p-nitroanilide substrate ([1]; inhibitor 10 μM)	PERCENTAGE INHIBITION α-glutamic acid-p-nitroanilide substrate ([1]; inhibitor 50 μM)	PERCENTAGE INHIBITION Leucine-p-nitroanilide substrate ([2]; inhibitor 10 μM, ConA H110D)	PERCENTAGE INHIBITION Leucine-p-nitroanilide substrate ([2]; inhibitor 50 μM, ConA H110D)	PERCENTAGE INHIBITION α-glutamic acid-p-nitroanilide substrate ([1]; inhibitor 1 mM)	PERCENTAGE INHIBITION α-glutamic acid-p-nitroanilide substrate ([1]; inhibitor 10 mM)	Ranking of inhibitors of H110D aminopeptidase activities ([2]; 5 mM)	PERCENTAGE INHIBITION Leucine-p-nitroanilide substrate ([2]; inhibitor 1 mM, ConA H110D)	PERCENTAGE INHIBITION Leucine-p-nitroanilide substrate ([2]; inhibitor 10 mM, ConA H110D)	PERCENTAGE INHIBITION α-glutamic acid-p-nitroanilide substrate ([1]; inhibitor 100 μM)	Reduction of activity against leucine-p-nitroanilide ([2]; ConA H110D, concentration recommended by the supplier)	PERCENTAGE INHIBITION Leucine-p-nitroanilide substrate ([2]; inhibitor 100 μM, ConA H110D)
CC(C)C[C@@H](N)[C@H](O)C(=O)N[C@H](C(=O)N[C@H](C(=O)N[C@@H](CC(=O)O)C(=O)O)C(C)C)C(C)C [Amastatin]	0%	0%	61%	66%								
c1cnc2c(c1)ccc1cccnc12 [1, 10 phenanthroline, 1,10 phenanthroline]					78%	85%	most effective inhibitor	78%	87%			
CC(C)C[C@H](NP(=O)(O)O[C@@H]1O[C@@H](C)[C@H](O)[C@@H](O)[C@H]1O)C(=O)N[C@@H](Cc1c[nH]c2ccccc12)C(=O)O [Phosphoramidon, phosphoramidon]	1%	1%	0.8%	7%								
O=C(O)CN(CCN(CC(=O)O)CC(=O)O)CC(=O)O [EDTA, ethylenediaminetetraacetic acid]					17%	21%		8%	16%			
CC(C)C[C@H](NC(=O)[C@@H](O)[C@H](N)Cc1ccccc1)C(=O)O [Bestatin]		23%		63%						35%	approximately 70%	68%
